The conditions of data set [1]: mouse, balb/3t3 clone a31, 48 h.
Another data set relates to HepG2. The following applies: human, hepg2, 48 h.
For the next data set, the system named is A549. The following applies: human, a549, 48 h.
Data set [2] has as its target T1, Glycine N-methyltransferase (Homo sapiens, UniProt Q14749).
T1 sequence (Q14749 whole entry): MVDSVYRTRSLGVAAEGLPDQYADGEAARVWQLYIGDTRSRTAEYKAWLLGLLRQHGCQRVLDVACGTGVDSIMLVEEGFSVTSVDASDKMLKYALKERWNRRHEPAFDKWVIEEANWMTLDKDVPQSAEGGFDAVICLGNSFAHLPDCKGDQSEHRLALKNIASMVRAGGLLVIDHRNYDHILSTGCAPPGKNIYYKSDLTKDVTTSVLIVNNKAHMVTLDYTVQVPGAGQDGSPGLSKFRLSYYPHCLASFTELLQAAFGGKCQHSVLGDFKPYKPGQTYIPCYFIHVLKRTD
Description: Inhibition of N-terminal His-tagged human recombinant Glycine-N-methyltransferase (1 to 295 residues) expressed in Escherichia coli using glycine and SAM as substrate incubated for 30 mins by HTRF assay. On the technique in general: In TR-FRET formats the signal depends on donor and acceptor labels being close together.

For `Nc1ncnc2c1ncn2[C@@H]1O[C@H](C[C@@H](N)CC[C@H](N)C(=O)O)[C@@H](O)[C@H]1O` [SINEFUNGIN], the CC50 in data set [1] is 99.2 µM; in the data set on HepG2 it was above 100 µM; in the data set on A549, 72.9 µM.

One may read the IC50 as the concentration at which inhibition is half-maximal. For `Nc1ncnc2c1ncn2[C@@H]1O[C@H](CNCc2cc[nH]n2)[C@@H](O)[C@H]1O`, the IC50 entry in data set [2] is reported as “Not Active”.

As to `Nc1ncnc2c1ncn2[C@@H]1O[C@H](CSCc2ccc3ccccc3c2)[C@@H](O)[C@H]1O`, the IC50 in data set [2] (read-out: IC50) came out at 0.26 µM. Moreover, the CC50 was above 200 µM in data set [1], above 100 µM in the data set with HepG2 and above 200 µM in the data set on A549.

Regarding `Nc1ncnc2c1ncn2[C@@H]1O[C@H](CSCc2cc(O)[nH]n2)[C@@H](O)[C@H]1O`, the IC50 in data set [2] (read-out: IC50) stood at 0.64 µM. Further, the figures for the CC50 (in data set [1]; with HepG2; in the data set with A549) were above 200 µM, above 100 µM and above 200 µM, respectively.

Regarding `Nc1ncnc2c1ncn2[C@@H]1O[C@H](CN(CCCC(=O)O)CCc2ccccc2)[C@@H](O)[C@H]1O`, the IC50 in data set [2] (read-out: IC50) stood at 2.7 µM. Further, the CC50 was above 200 µM in data set [1], above 100 µM in the data set on HepG2 and above 200 µM in the data set on A549.

For `Nc1ncnc2c1ncn2[C@@H]1O[C@H](C(=O)Nc2cccc(C(=O)O)c2)[C@@H](O)[C@H]1O`, the IC50 in data set [2] (read-out: IC50) was determined as 2.2 µM. For the same molecule, the results for the CC50 (in data set [1]; in the data set on HepG2; in the data set with A549) were above 200 µM, above 100 µM and above 200 µM, respectively.

As to `Nc1ncnc2c1ncn2[C@@H]1O[C@H](CSc2cccc(C(=O)O)c2)[C@@H](O)[C@H]1O`, the IC50 in data set [2] (read-out: IC50) worked out at 0.15 µM. In addition, the CC50 in data set [1] was above 200 µM; in the data set with HepG2 it was above 100 µM; in the data set with A549 it was above 200 µM.

Consider `Nc1ncnc2c1ncn2[C@@H]1O[C@H](CSCCc2c[nH]nn2)[C@@H](O)[C@H]1O`, for which the IC50 in data set [2] (read-out: IC50) amounted to 0.39 µM. The results for the CC50 (in data set [1]; with HepG2; in the data set on A549) were above 200 µM, above 100 µM and above 200 µM, respectively.

Take `Nc1ncnc2c1ncn2[C@@H]1O[C@H](C(=O)N2CCN(CC(=O)O)CC2)[C@@H](O)[C@H]1O`: the IC50 in data set [2] (read-out: IC50) came to 240 µM.

Take `Nc1ncnc2c1ncn2[C@@H]1O[C@H](CSCc2cccc(C(=O)O)c2)[C@@H](O)[C@H]1O`: the IC50 in data set [2] (read-out: IC50) worked out at 0.0086 µM. In addition, the CC50 is above 200 µM in data set [1], above 100 µM in the data set on HepG2 and above 200 µM in the data set with A549.

Regarding `Nc1ncnc2c1ncn2[C@@H]1O[C@H](CNCCc2ccccc2)[C@@H](O)[C@H]1O`, the IC50 in data set [2] (read-out: IC50) came out at 207 µM.

For the origin of these results see ChEMBL document CHEMBL4834465, “Potent SARS-CoV-2 mRNA Cap Methyltransferase Inhibitors by Bioisosteric Replacement of Methionine in SAM Cosubstrate” (ACS Med Chem Lett, 2021).
